According to patent US20210393655A1, “Vesicular Formulations for Use in the Treatment of Pain or Reduced Mobility of a Joint” (Sequessome Technology Holdings Limited, priority 2012, published 2021):

How the values were obtained:
Type in all cases: in vivo, human
[1] = system: patients with osteoarthritis of the knee; experiment: Clinical trials in osteoarthritis of the knee: WOMAC stiffness subscale; details: study CL-033-III-03; end of 3 month treatment
Description: (§1) Six clinical trials were conducted with Formulation X on patients with osteoarthritis of the knee. One efficacy measure was the change from baseline to the end of the study in patients' perception of joint stiffness and physical function. In studies CL-033-III-03 and CL-033-III-06, joint stiffness was assessed using two single items describing the severity of stiffness, both of which were measured using an 11-point numerical rating (NRS) on the stiffness subscale of the Western Ontario and McMaster Universities (WOMAC) Osteoarthritis Index (version 3.1) instrument. A measure of physical function was performed in all six studies using the WOMAC Osteoarthritis Index (version 3.1), which consisted of 17 single items describing the difficulty in performing daily activities. Each item was rated on a VAS or an 11-point numerical scale.

[2] = system: patients with osteoarthritis of the knee; experiment: Clinical trials in osteoarthritis of the knee: WOMAC physical function subscale
Description: as §1, with “One” for “Six clinical trials were conducted with Formulation X on patients with osteoarthritis of the knee. One”

[3] = system: patients with osteoarthritis of the knee; experiment: Clinical trial CL-033-III-03: WOMAC pain subscale
Description: as §1
Pain, joint mobility and physical function outcomes were compared in study CL-033-III-03.

[4] = oral celecoxib 100 mg b.i.d. (n = 233), 3 months, CL-033-III-03
[5] = study CL-033-III-03, end of 3 month treatment

Cc1ccc(-c2cc(C(F)(F)F)nn2-c2ccc(S(N)(=O)=O)cc2)cc1 [celecoxib]
Reduction in stiffness (WOMAC stiffness) [1]: 37.9% | Effect size versus oral placebo (Mann-Whitney estimator, MW), WOMAC function subscale score [2, 4]: MW = 0.5949 | Improvement in physical function (WOMAC function) [2, 5]: 38.2% | Effect size versus oral placebo (Mann-Whitney estimator, MW), WOMAC pain subscale score [3, 4]: MW = 0.5873 | Reduction in joint pain (WOMAC pain) [3, 5]: 40.4%
